Patent publication US6369058B1 (New Millennium Pharmaceutical Research Inc., priority 1999, dated 2002)

Legend:
[1] = Absorption of folic acid from the nasal cavity of rats (in vivo technique, spectrophotometric assay of nasal washings); settings: rat, intranasal 0.1 ml of folic acid solution (50 mg/10 ml, pH 8.3), nasal cavity washed with 3 ml water
Procedure: Rats were fasted overnight prior to experimentation. Surgical procedures were performed under equithesin anesthesia (3 ml/kg, i.p.). An incision was made in the neck of each rat, and the trachea cannulated with polyethylene tubing (PF-260). A closed end tube was inserted through the esophagus to the posterior part of the nasal cavity to prevent drug from entering the esophagus. The nasopalatine passage was closed with an adhesive agent to prevent drainage of the drug from the nasal cavity to the mouth.
The solution was filtered. The final pH was 8.3.
The washings were placed in a spectrophotometer cell and the absorbance was measured.

[2] = in vivo; cited from earlier work

Row | Compound | Concentration of folic acid in the nasal cavity ([1]; time 0 min) | Concentration of folic acid in the nasal cavity ([1]; time 2 min) | Concentration of folic acid in the nasal cavity ([1]; time 5 min) | Concentration of folic acid in the nasal cavity ([1]; time 15 min) | Patients with abdominal cramping, nausea, vomiting, and diarrhea [2] | Patients with elevation of serum transaminases (hepatotoxicity) [2]
1 | Nc1nc(=O)c2nc(CNc3ccc(C(=O)NC(CCC(=O)O)C(=O)O)cc3)cnc2[nH]1 [folic acid, N-[4-[[(2-Amino-1,4-dihydro-4-oxo-6-pteridinyl)methly]amino]benzoyl]-L-glutamic acid] | 4.1 mg % | 3.8 mg % | 2.9 mg % | 2.6 mg % |  | 
2 | Nc1c2c(nc3ccccc13)CCCC2 [tacrine, 1,2,3,4-tetrahydro-9-aminoacridine] |  |  |  |  | up to one-third | up to 20 % of patients
